The conditions of series [1]: 303.15 K; 101.33 kPa; Liquid; Vibrating tube method.
Series [2] is described as follows: refractive index (Na D-line) (dimensionless). Particulars: 303.15 K; 101.33 kPa; Liquid; Standard Abbe refractometry.

Structures are written as SMILES. ± gives the expanded uncertainty stated by the source.

Six compounds from the NIST ThermoML archive (doi:10.1016/j.jct.2016.08.033) can be followed below.

The term mass density denotes mass per unit of volume. A word on the refractive index: it is a measure of how strongly the sample bends light. On to `CCCCCC[n+]1ccn(C)c1.O=S(=O)([N-]S(=O)(=O)C(F)(F)F)C(F)(F)F`, for which the mass density in series [1] came to 1367.17 ± 1.1 kg/m3. The refractive index in series [2] is given as 1.42851 ± 0.0011.
On to `CCn1cc[n+](C)c1.O=S(=O)([N-]S(=O)(=O)C(F)(F)F)C(F)(F)F`, for which the mass density in series [1] was 1513.74 ± 1.2 kg/m3. For the same compound, the refractive index in series [2] came to 1.42162 ± 0.0011.
For `CCCC(=O)OC(C)CCC` (configuration not stated) [1-methylbutyl butanoate], in that order: 849.19 ± 1 kg/m3 and 1.40283 ± 0.0011.
For `CCCC(=O)O` [butanoic acid], in that order: 948.44 ± 1 kg/m3 and 1.39394 ± 0.0011.
Take `CCCC(C)O` (configuration not stated) [pentan-2-ol]: in series [1], the mass density was determined as 800.09 ± 2.1 kg/m3. For the same compound, the refractive index in series [2] amounted to 1.40216 ± 0.0021.
As to `C=COC(=O)CCC` [vinyl butanoate], the mass density in series [1] is given as 888.65 ± 1 kg/m3. The refractive index in series [2] turned out to be 1.40494 ± 0.0011.
